Reference: patent US20240246967A1, “AXL COMPOUNDS” (ARCUS BIOSCIENCES, INC., priority 2021, published 2024)

Legend:
[1] = molecular target: T1, human MER (Homo sapiens, UniProt Q12866); assay: HTRF KinEASE-TK biochemical potency assay, MER; details: 1 nM MER, 700 μM ATP, 800 nM TK Substrate-biotin
T1 construct: purchased Invitrogen
T1 sequence (Q12866 21-999): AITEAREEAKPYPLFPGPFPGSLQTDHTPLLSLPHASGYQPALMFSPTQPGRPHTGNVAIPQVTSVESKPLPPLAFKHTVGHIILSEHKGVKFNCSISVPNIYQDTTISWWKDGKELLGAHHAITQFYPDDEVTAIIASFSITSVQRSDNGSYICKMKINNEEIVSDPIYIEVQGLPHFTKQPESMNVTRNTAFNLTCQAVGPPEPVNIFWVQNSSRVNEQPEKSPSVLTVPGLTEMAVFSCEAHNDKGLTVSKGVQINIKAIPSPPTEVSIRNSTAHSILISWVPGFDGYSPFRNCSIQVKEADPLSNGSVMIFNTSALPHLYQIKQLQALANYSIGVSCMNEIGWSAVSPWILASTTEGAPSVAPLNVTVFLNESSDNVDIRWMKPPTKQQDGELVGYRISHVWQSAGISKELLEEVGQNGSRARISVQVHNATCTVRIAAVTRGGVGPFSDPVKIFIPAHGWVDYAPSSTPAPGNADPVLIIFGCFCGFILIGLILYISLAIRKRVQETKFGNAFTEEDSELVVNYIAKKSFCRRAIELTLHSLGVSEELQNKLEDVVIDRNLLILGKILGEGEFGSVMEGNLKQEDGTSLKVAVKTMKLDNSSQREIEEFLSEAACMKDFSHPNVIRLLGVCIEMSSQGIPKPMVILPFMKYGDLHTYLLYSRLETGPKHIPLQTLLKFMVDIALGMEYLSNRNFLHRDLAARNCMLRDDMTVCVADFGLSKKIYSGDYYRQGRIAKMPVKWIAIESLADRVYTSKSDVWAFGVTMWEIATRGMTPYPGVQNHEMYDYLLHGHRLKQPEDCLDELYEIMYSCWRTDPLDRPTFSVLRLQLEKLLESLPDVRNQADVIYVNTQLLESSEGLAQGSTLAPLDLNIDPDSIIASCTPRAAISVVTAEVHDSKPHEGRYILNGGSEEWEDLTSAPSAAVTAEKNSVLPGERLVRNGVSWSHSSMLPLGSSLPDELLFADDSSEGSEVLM
How it was run: (§1)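 Final conditions: 5 nM AXL, 1 nM TYRO3 or MER, 50 mM HEPES pH 7.4, 10 mM MgCl2, 0.01% BSA, 1 mM DTT, 700 μM ATP. Reaction ran 2 h at RT after 1 h preincubation with compound; HTRF signal read at 665/620 nm.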

[2] = molecular target: T2, human TYRO3 (Homo sapiens, UniProt Q06418); assay: HTRF KinEASE-TK biochemical potency assay, TYRO3; details: 1 nM TYRO3, 700 μM ATP, 800 nM TK Substrate-biotin
T2 construct: purchased Invitrogen
T2 sequence (Q06418 41-890): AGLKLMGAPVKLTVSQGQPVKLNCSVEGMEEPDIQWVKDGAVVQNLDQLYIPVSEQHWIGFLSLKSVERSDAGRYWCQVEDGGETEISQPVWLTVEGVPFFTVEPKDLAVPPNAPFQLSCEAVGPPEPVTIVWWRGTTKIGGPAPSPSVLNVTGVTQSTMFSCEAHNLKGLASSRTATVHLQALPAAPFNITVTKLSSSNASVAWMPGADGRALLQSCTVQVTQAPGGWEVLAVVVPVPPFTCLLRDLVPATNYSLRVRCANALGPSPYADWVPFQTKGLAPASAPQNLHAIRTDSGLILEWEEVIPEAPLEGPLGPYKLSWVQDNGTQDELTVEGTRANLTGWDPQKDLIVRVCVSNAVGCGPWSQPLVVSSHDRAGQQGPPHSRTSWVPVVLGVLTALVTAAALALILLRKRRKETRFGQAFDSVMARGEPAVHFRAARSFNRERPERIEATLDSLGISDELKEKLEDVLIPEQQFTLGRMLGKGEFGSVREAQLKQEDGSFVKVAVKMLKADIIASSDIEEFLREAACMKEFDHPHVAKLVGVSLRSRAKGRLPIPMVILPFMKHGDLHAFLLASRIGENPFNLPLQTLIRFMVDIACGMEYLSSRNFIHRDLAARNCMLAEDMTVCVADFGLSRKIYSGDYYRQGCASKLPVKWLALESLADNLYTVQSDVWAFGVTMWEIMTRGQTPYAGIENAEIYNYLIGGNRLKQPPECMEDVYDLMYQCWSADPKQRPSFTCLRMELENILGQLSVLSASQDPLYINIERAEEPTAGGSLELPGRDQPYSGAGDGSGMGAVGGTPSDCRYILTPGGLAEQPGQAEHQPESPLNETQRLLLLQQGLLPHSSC
How it was run: as §1

Row | IC50 [1] [nM] | IC50 [2] [nM] | SMILES
1 | 100 to 1000 | < 100 | C[C@@H]1CCCN1C1(C)CCc2ccc(-c3cnc4[nH]nc(-c5ccc(S(N)(=O)=O)cc5)c4c3)cc2CC1 (stereo partly drawn) [Example 95, 4-(5-(7-Methyl-7-((R)-2-methylpyrrolidin-1-yl)-6,7,8,9-tetrahydro-5H-benzo[7]annulen-2-yl)-1H-pyrazolo[3,4-b]pyridin-3-yl)benzenesulfonamide]
2 | > 1000 | > 1000 | C[C@@H]1CCCN1C1(C)CCc2ccc(-c3cnc4[nH]nc(-c5ccc(C(=O)N6CCCC6)cc5)c4c3)cc2CC1 (stereo partly drawn) [Example 118, (2R)-2-Methyl-1-(7-methyl-2-{3-[4-(pyrrolidine-1-carbonyl)phenyl]-1H-pyrazolo[3,4-b]pyridin-5-yl}-6,7,8,9-tetrahydro-5H-benzo[7]annulen-7-yl)pyrrolidine]
3 | 100 to 1000 | 100 to 1000 | CN(C)C(=O)c1ccc(-c2n[nH]c3ncc(-c4ccc5c(c4)CC[C@@H](N4C6COCC4C6)CC5)cc23)cc1 [Example 125, N,N-Dimethyl-4-{5-[(7S)-7-{3-oxa-6-azabicyclo[3.1.1]heptan-6-yl}-6,7,8,9-tetrahydro-5H-benzo[7]annulen-2-yl]-2H-pyrazolo[3,4-b]pyridin-3-yl}benzamide]
4 | 100 to 1000 | < 100 | Cc1cc(-c2n[nH]c3ncc(-c4ccc5c(c4)CC[C@@H](N4CCCC4)CC5)cc23)cc(C)c1C(N)=O [Example 49, 2,6-Dimethyl-4-{5-[(7S)-7-(pyrrolidin-1-yl)-6,7,8,9-tetrahydro-5H-benzo[7]annulen-2-yl]-1H-pyrazolo[3,4-b]pyridin-3-yl}benzamide]
5 | 100 to 1000 | 100 to 1000 | CC(C)(C)S(=O)(=O)c1ccc(-c2n[nH]c3ncc(-c4ccc5c(c4)CC[C@@H](N4C6COCC4C6)CC5)cc23)cc1 [Example 124, 6-[(7S)-2-{3-[4-(2-methylpropane-2-sulfonyl)phenyl]-2H-pyrazolo[3,4-b]pyridin-5-yl}-6,7,8,9-tetrahydro-5H-benzo[7]annulen-7-yl]-3-oxa-6-azabicyclo[3.1.1]heptane]
6 | 100 to 1000 | < 100 | CCS(=O)(=O)c1ccc(-c2n[nH]c3ncc(-c4ccc5c(c4)CC[C@@H](N4CCCC4)CC5)cc23)cc1 [Example 41, (S)-3-(4-(Ethylsulfonyl)phenyl)-5-(7-(pyrrolidin-1-yl)-6,7,8,9-tetrahydro-5H-benzo[7]annulen-2-yl)-1H-pyrazolo[3,4-b]pyridine]
7 | 100 to 1000 | 100 to 1000 | CC(C)(O)c1ccc(-c2n[nH]c3ncc(-c4ccc5c(c4)CCC(N4CCC[C@@H]4CO)CC5)cc23)cc1Cl (stereo partly drawn) [Example 21, 2-[2-Chloro-4-(5-{7-[(2R)-2-(hydroxymethyl)pyrrolidin-1-yl]-6,7,8,9-tetrahydro-5H-benzo[7]annulen-2-yl}-1H-pyrazolo[3,4-b]pyridin-3-yl)phenyl]propan-2-ol]
8 | 100 to 1000 | 100 to 1000 | C[C@@H]1CCCN1C1(C)CCc2ccc(-c3cnc4[nH]nc(-c5cnc(C(C)(C)O)c(Cl)c5)c4c3)cc2CC1 (stereo partly drawn) [Example 98, 2-[3-Chloro-5-(5-{7-methyl-7-[(2R)-2-methylpyrrolidin-1-yl]-6,7,8,9-tetrahydro-5H-benzo[7]annulen-2-yl}-1H-pyrazolo[3,4-b]pyridin-3-yl)pyridin-2-yl]propan-2-ol]
9 | 100 to 1000 | < 100 | C[C@@H]1CCCN1C1CCc2ccc(-c3cnc4[nH]nc(-c5ccc(C(C)(C)O)c(C(F)(F)F)c5)c4c3)cc2CC1 (stereo partly drawn) [Example 20, 2-[4-(5-{7-[(2R)-2-Methylpyrrolidin-1-yl]-6,7,8,9-tetrahydro-5H-benzo[7]annulen-2-yl}-1H-pyrazolo[3,4-b]pyridin-3-yl)-2-(trifluoromethyl)phenyl]propan-2-ol]
10 | > 1000 | 100 to 1000 | Cc1cc(-c2n[nH]c3ncc(-c4ccc5c(c4)CCN(C(=O)C(C)C)CC5)cc23)ccc1C(=O)N1CCNCC1 [Example 48, 2-Methyl-1-(7-{3-[3-methyl-4-(piperazine-1-carbonyl)phenyl]-1H-pyrazolo[3,4-b]pyridin-5-yl}-2,3,4,5-tetrahydro-1H-3-benzazepin-3-yl)propan-1-one]
11 | > 1000 | > 1000 | O=S(=O)(c1ccc(-c2n[nH]c3ncc(-c4ccc5c(c4)CCN(CC4CCOC4)CC5)cc23)cc1)C1CC1 (stereo not shown) [Example 27, 7-{3-[4-(Cyclopropanesulfonyl)phenyl]-1H-pyrazolo[3,4-b]pyridin-5-yl}-3-[(oxolan-3-yl)methyl]-2,3,4,5-tetrahydro-1H-3-benzazepine]
12 | < 100 | < 100 | C[C@@H]1CCCN1C1(C)CCc2ccc(-c3cnc4[nH]nc(-c5ccc(C(N)=O)cc5)c4c3)cc2CC1 (stereo partly drawn) [Example 54, 4-(5-(7-Methyl-7-((R)-2-methylpyrrolidin-1-yl)-6,7,8,9-tetrahydro-5H-benzo[7]annulen-2-yl)-1H-pyrazolo[3,4-b]pyridin-3-yl)benzamide]
13 | 100 to 1000 | 100 to 1000 | CC(C)(O)c1ccc(-c2n[nH]c3ncc(-c4ccc5c(n4)CCC(N4CCCC4)CC5)cc23)cc1Cl (stereo not shown) [Example 60, 2-(2-Chloro-4-{5-[7-(pyrrolidin-1-yl)-5H,6H,7H,8H,9H-cyclohepta[b]pyridin-2-yl]-1H-pyrazolo[3,4-b]pyridin-3-yl}phenyl)propan-2-ol]
14 | 100 to 1000 | < 100 | C[C@@H]1CCCN1C1(C)CCc2ccc(-c3cnc4[nH]nc(-c5ccc(S(=O)(=O)C6CC6)c(F)c5)c4c3)cc2CC1 (stereo partly drawn) [Example 25, (2R)-1-(2-{3-[4-(Cyclopropanesulfonyl)-3-fluorophenyl]-1H-pyrazolo[3,4-b]pyridin-5-yl}-7-methyl-6,7,8,9-tetrahydro-5H-benzo[7]annulen-7-yl)-2-methylpyrrolidine]
15 | 100 to 1000 | < 100 | O=S(=O)(c1ccc(-c2n[nH]c3ncc(-c4ccc5c(c4)CC[C@@H](N4CCCC4)CC5)cc23)cc1)C1CC1 [Example 40, (S)-3-(4-(Cyclopropylsulfonyl)phenyl)-5-(7-(pyrrolidin-1-yl)-6,7,8,9-tetrahydro-5H-benzo[7]annulen-2-yl)-1H-pyrazolo[3,4-b]pyridine]
16 | > 1000 | 100 to 1000 | C[C@@H]1CCCN1C1CCc2ccc(-c3cnc4[nH]nc(-c5ccc(S(=O)(=O)C6CC6)cc5)c4c3)cc2C(C)(C)C1 (stereo partly drawn) [Example 109, (2R)-1-(2-{3-[4-(Cyclopropanesulfonyl)phenyl]-1H-pyrazolo[3,4-b]pyridin-5-yl}-9,9-dimethyl-6,7,8,9-tetrahydro-5H-benzo[7]annulen-7-yl)-2-methylpyrrolidine]
17 | 100 to 1000 | < 100 | COCCS(=O)(=O)c1ccc(-c2n[nH]c3ncc(-c4ccc5c(c4)CCC(C)(N4CCC[C@H]4C)CC5)cc23)cc1 (stereo partly drawn) [Example 111, (2R)-1-(2-{3-[4-(2-Methoxyethanesulfonyl)phenyl]-1H-pyrazolo[3,4-b]pyridin-5-yl}-7-methyl-6,7,8,9-tetrahydro-5H-benzo[7]annulen-7-yl)-2-methylpyrrolidine]
